Test results taken from ChEMBL document CHEMBL1201862, “PubChem BioAssay data set” (2004).
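In this assay, cells in 96-well plates receive the compound at five concentrations for 48 hours. Endpoints are linearly interpolated between the surrounding concentrations. GI50: concentration for 50% inhibition of growth.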 The source made the active and inactive calls. No stated cut-off is given here; in the data, active = GI50 up to about 1.1 µM and inactive = higher.

Columns and labels:
Test in all cases: NCI tumour cell line growth inhibition, 48 h
786-0 = system: 786-0
A549 = system: A549
ACHN = system: ACHN
COLO 205 = system: COLO 205
EKVX = system: EKVX
HOP-62 = system: HOP-62
HT-29 = system: HT-29
K562 = system: K562
NCI-H522 = system: NCI-H522
RPMI-8226 = system: RPMI-8226
SF-295 = system: SF-295
SK-MEL-5 = system: SK-MEL-5
SNB-19 = system: SNB-19
SNB-75 = system: SNB-75
OVCAR-3 = system: OVCAR-3
TK-10 = system: TK-10
UO-31 = system: UO-31
SK-MEL-2 = system: SK-MEL-2

Measured: GI50

CC1(C)S[C@H](c2ccccc2C(=O)O)N[C@@H]1CC(=O)O
inactive: 786-0 > 100 µM | A549 > 100 µM | ACHN > 100 µM | COLO 205 > 100 µM | EKVX > 100 µM | HOP-62 > 100 µM | HT-29 > 100 µM | K562 > 100 µM | NCI-H522 > 100 µM | RPMI-8226 > 100 µM | SF-295 > 100 µM | SK-MEL-5 > 100 µM | SNB-19 > 100 µM | SNB-75 > 100 µM

O=C(/C=C/c1ccccc1Cl)c1ccccc1Cl
inactive: 786-0 15.2 µM | A549 30 µM | ACHN 17.3 µM | COLO 205 21.4 µM | EKVX 22.4 µM | HOP-62 47.8 µM | HT-29 18.8 µM | K562 21 µM | NCI-H522 19 µM | OVCAR-3 18.9 µM | RPMI-8226 16 µM | SF-295 22.6 µM | SK-MEL-5 31.6 µM | SNB-19 15.7 µM | SNB-75 30.3 µM | TK-10 37.5 µM | UO-31 15.9 µM

C=CCNC1=NC(=O)C(CC(=O)Nc2ccc([N+](=O)[O-])cc2[N+](=O)[O-])S1 (stereo not drawn)
inactive: 786-0 > 100 µM | A549 > 100 µM | ACHN 90.6 µM | COLO 205 > 100 µM | EKVX > 100 µM | HOP-62 > 100 µM | HT-29 > 100 µM | NCI-H522 > 100 µM | OVCAR-3 > 100 µM | SF-295 > 100 µM | SK-MEL-2 > 100 µM | SK-MEL-5 > 100 µM | SNB-19 > 100 µM | SNB-75 66.5 µM | TK-10 98.6 µM | UO-31 84.5 µM

O=C1c2ccccc2N2OC3C4CCC(C4)C3C12c1ccccc1 (stereo not drawn)
inactive: 786-0 > 100 µM | A549 55.5 µM | ACHN > 100 µM | COLO 205 > 100 µM | EKVX > 100 µM | HOP-62 > 100 µM | HT-29 61.4 µM | K562 47 µM | NCI-H522 36 µM | RPMI-8226 37.1 µM | SF-295 > 100 µM | SK-MEL-5 60.8 µM | SNB-19 > 100 µM | SNB-75 > 100 µM | UO-31 71.3 µM

Cc1nc2ccccc2c(=O)n1/N=C(\N=N\c1ccccc1Cl)c1ccccc1
inactive: 786-0 19 µM | A549 48.6 µM | COLO 205 21.5 µM | EKVX 20.8 µM | HOP-62 19.1 µM | HT-29 25.6 µM | NCI-H522 19.1 µM | RPMI-8226 17 µM | SK-MEL-5 19.4 µM | SNB-19 74.1 µM | TK-10 60.5 µM | UO-31 28 µM

CNC(=S)NNC(=O)c1c(C)nc2sccn12
inactive: 786-0 > 100 µM | A549 > 100 µM | ACHN > 100 µM | COLO 205 > 100 µM | EKVX > 100 µM | HOP-62 > 100 µM | HT-29 > 100 µM | K562 > 100 µM | NCI-H522 > 100 µM | OVCAR-3 > 100 µM | SF-295 > 100 µM | SK-MEL-2 > 100 µM | SK-MEL-5 > 100 µM | SNB-19 99.5 µM | TK-10 > 100 µM

Cn1cnc([N+](=O)[O-])c1Sc1nc2ccccc2s1
inactive: 786-0 11.8 µM | A549 10.2 µM | ACHN 15 µM | COLO 205 3.33 µM | EKVX 3.96 µM | HOP-62 25.2 µM | HT-29 13.3 µM | OVCAR-3 3.7 µM | RPMI-8226 12.5 µM | SF-295 20.8 µM | SK-MEL-5 13.7 µM | SNB-19 14.5 µM | SNB-75 15.6 µM | UO-31 9.57 µM
